Assay results: BindingDB's records for doi:10.1021/jm00150a026 (1985)

target: Dihydrofolate reductase (Escherichia coli, UniProt P0ABQ4); assay: Inhibition of Escherichia coli dihydrofolate reductase.
Sequence (P0ABQ4 whole entry, looked up): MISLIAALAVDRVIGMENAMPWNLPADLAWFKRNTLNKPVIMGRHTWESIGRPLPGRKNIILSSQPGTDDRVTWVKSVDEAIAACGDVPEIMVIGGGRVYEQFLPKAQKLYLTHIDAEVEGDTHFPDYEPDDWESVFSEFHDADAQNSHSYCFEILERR

Row | Structure (SMILES) | Ki
1 | CC(C)(C)c1cccc(OCc2cccc(N3C(N)=NC(N)=NC3(C)C)c2)c1 | 871 nM
2 | CCCCCCCCCCCCOc1cccc(N2C(N)=NC(N)=NC2(C)C)c1 | 1320 nM
3 | CC1(C)N=C(N)N=C(N)N1c1cccc(OCc2ccc(Cl)c(Cl)c2)c1 | 708 nM
4 | CC1(C)N=C(N)N=C(N)N1c1cccc(COc2cccc(NC(N)=S)c2)c1 | 676 nM
5 | CC1(C)N=C(N)N=C(N)N1c1cccc(COc2cccc(Cl)c2)c1 [1-[3-(3-Chloro-phenoxymethyl)-phenyl]-6,6-dimethyl-1,6-dihydro-[1,3,5]triazine-2,4-diamine] | 977 nM
6 | CCc1cccc(OCc2cccc(N3C(N)=NC(N)=NC3(C)C)c2)c1 [1-[3-(3-Ethyl-phenoxymethyl)-phenyl]-6,6-dimethyl-1,6-dihydro-[1,3,5]triazine-2,4-diamine] | 1120 nM
7 | COc1cccc(OCc2cccc(N3C(N)=NC(N)=NC3(C)C)c2)c1 [1-[3-(3-Methoxy-phenoxymethyl)-phenyl]-6,6-dimethyl-1,6-dihydro-[1,3,5]triazine-2,4-diamine] | 955 nM
8 | CC1(C)N=C(N)N=C(N)N1c1cccc(COc2cccc(C#N)c2)c1 [3-[3-(4,6-Diamino-2,2-dimethyl-2H-[1,3,5]triazin-1-yl)-benzyloxy]-benzonitrile] | 891 nM
9 | Cc1cccc(OCc2cccc(N3C(N)=NC(N)=NC3(C)C)c2)c1 [6,6-Dimethyl-1-(3-m-tolyloxymethyl-phenyl)-1,6-dihydro-[1,3,5]triazine-2,4-diamine] | 537 nM
10 | CCCCCCCCCCCCCCOc1cccc(N2C(N)=NC(N)=NC2(C)C)c1 [6,6-Dimethyl-1-(3-tetradecyloxy-phenyl)-1,6-dihydro-[1,3,5]triazine-2,4-diamine] | 1410 nM
11 | CCCCCCCCCCCOc1cccc(N2C(N)=NC(N)=NC2(C)C)c1 [6,6-Dimethyl-1-(3-undecyloxy-phenyl)-1,6-dihydro-[1,3,5]triazine-2,4-diamine] | 646 nM
12 | CC1(C)N=C(N)N=C(N)N1c1cccc(COc2cccc(CO)c2)c1 [{3-[3-(4,6-Diamino-2,2-dimethyl-2H-[1,3,5]triazin-1-yl)-benzyloxy]-phenyl}-methanol] | 646 nM
13 | CC1(C)N=C(N)N=C(N)N1c1cccc(COc2cccc(NC(N)=O)c2)c1 [{3-[3-(4,6-Diamino-2,2-dimethyl-2H-[1,3,5]triazin-1-yl)-benzyloxy]-phenyl}-urea] | 1230 nM
